Assay results as given in PubChem BioAssay AID1963849 (Molecular Pharmacology Branch, DTP, NCI, 2024).

Test system: 299254-011-R-J1-PDC complex spheroid viability
Test: Anticancer human tumor 299254-011-R-J1-PDC patient-derived melanoma cell line growth inhibition [POLQ]
Conditions: for IC50: curve of first compound; for viability, T/C: stronger effect = lower value; active = viability on the fitted dose curve at most 10% of control; inactive = the rest
Outline: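 PDC + HUVEC + MSC complex spheroids; POLQ inhibitors ± partner drugs; top conc. at/near clinical Cmax, else 10 microM (SN-38 1 microM), half-log dilutions; 37 degrees C, 5% CO2.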

[1] = second compound 0.0316 µM, first compound 0.0316 µM
[2] = second compound 0.0316 µM, first compound 0.1 µM
[3] = second compound 0.0316 µM, first compound 0.316 µM
[4] = second compound 0.0316 µM, first compound 1 µM
[5] = second compound 0.0316 µM, first compound 3.16 µM
[6] = second compound 0.0316 µM, first compound 10 µM
[7] = second compound 0.1 µM, first compound 0.0316 µM
[8] = second compound 0.1 µM, first compound 0.1 µM
[9] = second compound 0.1 µM, first compound 0.316 µM
[10] = second compound 0.1 µM, first compound 1 µM
[11] = second compound 0.1 µM, first compound 3.16 µM
[12] = second compound 0.1 µM, first compound 10 µM
[13] = second compound 0.316 µM, first compound 0.0316 µM
[14] = second compound 0.316 µM, first compound 0.1 µM
[15] = second compound 0.316 µM, first compound 0.316 µM
[16] = second compound 0.316 µM, first compound 1 µM
[17] = second compound 0.316 µM, first compound 3.16 µM
[18] = second compound 0.316 µM, first compound 10 µM
[19] = second compound 1 µM, first compound 0.0316 µM
[20] = second compound 1 µM, first compound 0.1 µM
[21] = second compound 1 µM, first compound 0.316 µM
[22] = second compound 1 µM, first compound 1 µM
[23] = second compound 1 µM, first compound 3.16 µM
[24] = second compound 1 µM, first compound 10 µM
[25] = second compound 3.16 µM, first compound 0.0316 µM
[26] = second compound 3.16 µM, first compound 0.1 µM
[27] = second compound 3.16 µM, first compound 0.316 µM
[28] = second compound 3.16 µM, first compound 1 µM
[29] = second compound 3.16 µM, first compound 3.16 µM
[30] = second compound 3.16 µM, first compound 10 µM
[31] = second compound 10 µM, first compound 0.0316 µM
[32] = second compound 10 µM, first compound 0.1 µM
[33] = second compound 10 µM, first compound 0.316 µM
[34] = second compound 10 µM, first compound 1 µM
[35] = second compound 10 µM, first compound 3.16 µM
[36] = second compound 10 µM, first compound 10 µM
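Note: spheroids exposed to drugs for one week before measurement.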
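Throughout, for viability, T/C: percent viability relative to DMSO vehicle control taken as 100%.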

COc1cc2cc(C(=O)CCC(=O)O)sc2cc1OC + Cc1cccc(N(C)C(=O)C2C(O)CCN2c2nc(C)cc(C(F)(F)F)c2C#N)c1
> 10 µM: IC50 (second compound 0.0316 µM) | IC50 (second compound 0.1 µM) | IC50 (second compound 0.316 µM) | IC50 (second compound 1 µM) | IC50 (second compound 3.16 µM) | IC50 (second compound 10 µM)
inactive: viability, T/C [1] 105% | viability, T/C [2] 102% | viability, T/C [3] 96.3% | viability, T/C [4] 113% | viability, T/C [5] 111% | viability, T/C [6] 109% | viability, T/C [7] 98.6% | viability, T/C [8] 96% | viability, T/C [9] 104% | viability, T/C [10] 101% | viability, T/C [11] 106% | viability, T/C [12] 101% | viability, T/C [13] 102% | viability, T/C [14] 115% | viability, T/C [15] 99.9% | viability, T/C [16] 110% | viability, T/C [17] 113% | viability, T/C [18] 104% | viability, T/C [19] 105% | viability, T/C [20] 109% | viability, T/C [21] 105% | viability, T/C [22] 112% | viability, T/C [23] 110% | viability, T/C [24] 103% | viability, T/C [25] 105% | viability, T/C [26] 116% | viability, T/C [27] 109% | viability, T/C [28] 95% | viability, T/C [29] 96.1% | viability, T/C [30] 97.4% | viability, T/C [31] 102% | viability, T/C [32] 95.5% | viability, T/C [33] 103% | viability, T/C [34] 102% | viability, T/C [35] 102% | viability, T/C [36] 101%

O=C(Nc1ccc(O)c(NS(=O)(=O)c2ccc(F)cc2)c1)c1ccc(-c2ccccc2)cc1 + Cc1cccc(N(C)C(=O)C2C(O)CCN2c2nc(C)cc(C(F)(F)F)c2C#N)c1
8.66 µM: IC50 (second compound 10 µM)
9.75 µM: IC50 (second compound 3.16 µM)
9.45 µM: IC50 (second compound 0.1 µM)
> 10 µM: IC50 (second compound 0.0316 µM) | IC50 (second compound 0.316 µM) | IC50 (second compound 1 µM)
inactive: viability, T/C [1] 102% | viability, T/C [2] 99.2% | viability, T/C [3] 92.7% | viability, T/C [4] 104% | viability, T/C [5] 99.3% | viability, T/C [6] 54.8% | viability, T/C [7] 105% | viability, T/C [8] 107% | viability, T/C [9] 98% | viability, T/C [10] 107% | viability, T/C [11] 96.3% | viability, T/C [12] 47.3% | viability, T/C [13] 102% | viability, T/C [14] 115% | viability, T/C [15] 98.2% | viability, T/C [16] 123% | viability, T/C [17] 93.7% | viability, T/C [18] 56.2% | viability, T/C [19] 106% | viability, T/C [20] 111% | viability, T/C [21] 109% | viability, T/C [22] 104% | viability, T/C [23] 90.7% | viability, T/C [24] 53% | viability, T/C [25] 108% | viability, T/C [26] 103% | viability, T/C [27] 101% | viability, T/C [28] 94.8% | viability, T/C [29] 100% | viability, T/C [30] 48.9% | viability, T/C [31] 98.7% | viability, T/C [32] 98% | viability, T/C [33] 93.6% | viability, T/C [34] 110% | viability, T/C [35] 83.4% | viability, T/C [36] 45.2%

COc1cc2cc(C(=O)CCC(=O)O)sc2cc1OC + Nc1ccc(C#CCN(C(=O)Cc2ncc(C(F)(F)F)cc2C(F)(F)F)c2ccc(F)cc2)nn1
> 10 µM: IC50 (second compound 0.0316 µM) | IC50 (second compound 0.1 µM) | IC50 (second compound 0.316 µM) | IC50 (second compound 1 µM) | IC50 (second compound 3.16 µM) | IC50 (second compound 10 µM)
inactive: viability, T/C [1] 99% | viability, T/C [2] 97.8% | viability, T/C [3] 85.9% | viability, T/C [4] 94% | viability, T/C [5] 111% | viability, T/C [6] 106% | viability, T/C [7] 96.9% | viability, T/C [8] 83.8% | viability, T/C [9] 82.3% | viability, T/C [10] 105% | viability, T/C [11] 111% | viability, T/C [12] 102% | viability, T/C [13] 99.3% | viability, T/C [14] 102% | viability, T/C [15] 90.5% | viability, T/C [16] 86.3% | viability, T/C [17] 97.5% | viability, T/C [18] 102% | viability, T/C [19] 77.2% | viability, T/C [20] 94.6% | viability, T/C [21] 92.4% | viability, T/C [22] 91.4% | viability, T/C [23] 94.7% | viability, T/C [24] 93.4% | viability, T/C [25] 109% | viability, T/C [26] 87.8% | viability, T/C [27] 97.4% | viability, T/C [28] 102% | viability, T/C [29] 100% | viability, T/C [30] 115% | viability, T/C [31] 104% | viability, T/C [32] 88% | viability, T/C [33] 92.6% | viability, T/C [34] 99.4% | viability, T/C [35] 86.7% | viability, T/C [36] 87.1%

CCc1cc2c(N3CCc4c(cc(Cn5ccnc5)cc4-c4cn(C)nc4C(F)(F)F)C3=O)cc(C)nc2c(OC)n1 + COC1C(OC(N)=O)C(O)C(Oc2ccc3c(O)c(NC(=O)c4ccc(O)c(CC=C(C)C)c4)c(=O)oc3c2C)OC1(C)C
> 10 µM: IC50 (second compound 0.0316 µM) | IC50 (second compound 0.1 µM) | IC50 (second compound 0.316 µM) | IC50 (second compound 1 µM) | IC50 (second compound 3.16 µM) | IC50 (second compound 10 µM)
inactive: viability, T/C [1] 96.8% | viability, T/C [2] 96.1% | viability, T/C [3] 109% | viability, T/C [4] 81.1% | viability, T/C [5] 91.5% | viability, T/C [6] 69.5% | viability, T/C [7] 99.8% | viability, T/C [8] 95.3% | viability, T/C [9] 104% | viability, T/C [10] 108% | viability, T/C [11] 107% | viability, T/C [12] 63.9% | viability, T/C [13] 107% | viability, T/C [14] 121% | viability, T/C [15] 103% | viability, T/C [16] 106% | viability, T/C [17] 88.4% | viability, T/C [18] 66.8% | viability, T/C [19] 116% | viability, T/C [20] 110% | viability, T/C [21] 114% | viability, T/C [22] 99.6% | viability, T/C [23] 94.5% | viability, T/C [24] 67.4% | viability, T/C [25] 106% | viability, T/C [26] 107% | viability, T/C [27] 100% | viability, T/C [28] 106% | viability, T/C [29] 99.2% | viability, T/C [30] 70.6% | viability, T/C [31] 96.3% | viability, T/C [32] 105% | viability, T/C [33] 110% | viability, T/C [34] 106% | viability, T/C [35] 93.5% | viability, T/C [36] 73.9%

C=CC(=O)N1CCN(c2nc(=O)n(-c3c(C)ccnc3C(C)C)c3nc(-c4c(O)cccc4F)c(F)cc23)C(C)C1 (stereo not given) + Cc1cccc(N(C)C(=O)C2C(O)CCN2c2nc(C)cc(C(F)(F)F)c2C#N)c1
> 10 µM: IC50 (second compound 0.0316 µM) | IC50 (second compound 0.1 µM) | IC50 (second compound 0.316 µM) | IC50 (second compound 1 µM) | IC50 (second compound 3.16 µM) | IC50 (second compound 10 µM)
inactive: viability, T/C [1] 88.6% | viability, T/C [2] 75.1% | viability, T/C [3] 72.8% | viability, T/C [4] 67.8% | viability, T/C [5] 63.4% | viability, T/C [6] 68.9% | viability, T/C [7] 85.2% | viability, T/C [8] 78.1% | viability, T/C [9] 64% | viability, T/C [10] 79.3% | viability, T/C [11] 69.3% | viability, T/C [12] 58.7% | viability, T/C [13] 99.5% | viability, T/C [14] 81.8% | viability, T/C [15] 88.3% | viability, T/C [16] 77.2% | viability, T/C [17] 74.3% | viability, T/C [18] 64.4% | viability, T/C [19] 88.4% | viability, T/C [20] 73.8% | viability, T/C [21] 63.5% | viability, T/C [22] 64.5% | viability, T/C [23] 82.2% | viability, T/C [24] 67.9% | viability, T/C [25] 84% | viability, T/C [26] 84.8% | viability, T/C [27] 66.4% | viability, T/C [28] 70.1% | viability, T/C [29] 66.1% | viability, T/C [30] 72.8% | viability, T/C [31] 90.5% | viability, T/C [32] 72.7% | viability, T/C [33] 56.4% | viability, T/C [34] 74% | viability, T/C [35] 74.9% | viability, T/C [36] 75.2%
